# Assay results taken from patent US11202814B2, “Compositions for atopic skin” (INFINITEC ACTIVOS, S.L., priority 2018, dated 2021).
# System: PGE2 release
# Assay: Inhibitory effect on PGE2 release in cell culture, inflammation induced by IL1a
# Assay type: cell-based, human
# Procedure: The inhibitory effect on IL1a inflammatory induction of the non-encapsulated composition of Pinus pinaster bark extract and curcumin, capsules loaded with Pinus pinaster bark extract and curcumin, unloaded capsules, non-encapsulated composition of Pinus pinaster bark extract and non-encapsulated composition of curcumin were analysed on human dermal fibroblasts.
# Human dermal fibroblasts (LIFE TECHNOLOGIES), seeded in a 96-well plate up to 80% confluency, were treated with the following compositions dissolved in medium DMEM (Dulbecco's Modified Eagle Medium) to a total volume of 1 ml: • a) pine bark extract (1%) • b) curcumin (0.01%) • c) Phosphotech phospholipids (having the same composition has described in example 2) (4%) • d) curcumin (0.01%)+pine bark extract (1%) • e) capsules (curcumin (0.01%)+pine bark extract (1%)+Phosphotech phospholipids (having the same composition has described in example 2) (4%)) for 48 hours. […] After 24 hours inhibitory effect on PGE2 in culture cell was measured using prostaglandin E2 EIA kit (Prostaglandin E2 EIA kit—Monoclonal (Item: 514010) Cayman Chemical).
# The results are provided in Table 4 below wherein the PGE2 release is expressed in pg/ml. The reduction vs IL1a-induced fibroblasts is calculated as the result of PGE2 obtained for each treatment/the result of PGE2 obtained for IL1a-induced fibroblasts (without any treatment). […]
substance,measurement,setting,value
curcumin [Composition b],Calculated reduction vs IL1a-induced fibroblasts,PGE2 of treatment / PGE2 of IL1a-induced fibroblasts (2170 pg/ml),0.232
same,PGE2,"human dermal fibroblasts treated 48 hours, IL1a 5 pM, untreated IL1a-induced fibroblasts 2170, control 471 pg/ml",503 pg/mL
